Source: patent publication US6664406B1, “Nervonic acid derivatives, their preparation and use” (Croda International PLC, priority 1999, dated 2003)
Read-outs that look alike come from different tables or passages of the source.

Assays:
[1] = tested on: chronic EAE in the Biozzi mouse model; test: NA:NA and NA:GLA in ethyl oleate in chronic relapsing EAE (Example 7); assay type: in vivo; details: for AG: Percentage of mice in the group / CFT: Percentage of mice in the group / CHLP: Percentage of mice in the group / HLH: Percentage of mice in the group / PFT: Percentage of mice in the group / PHLP: Percentage of mice in the group: ethyl oleate vehicle
Protocol: (§1) Male Biozzi mice weighing 30-35 g were injected in each flank with 0.15 mL of an emulsion containing lyophilised mouse spinal cord, phosphate buffered saline and incomplete Freund's adjuvant supplemented with Mycobacterium butyricum and Mycobacterium tuberculosis H37Ra.
(§2) 1: Partial Flaccid Tail (PFT), 2: Complete Flaccid Tail (CFT), 3: Impaired Righting Reflex (IRR), 4: Ataxic Gait (AG), 5: Hind Limb Hypotonia (HLH), 6: Partial Hind Limb Paralysis (PHLP), 7: Complete Hind Limb Paralysis (CHLP), 8: Moribund (M), 9: Dead (D).

[2] = tested on: CREAE in the Biozzi mouse model; test: NA:NA and NA:GLA in Miglyol 810 in CREAE (Example 8); assay type: in vivo
Protocol: as §1, §2
Therefore, Miglyol appeared well-suited for use as a vehicle in subsequent studies to determine the efficacy of compounds in CREAE. Therefore, using Miglyol 810 as the new vehicle, prophylactic effects of NA:NA and NA:GLA were re-assessed on CREAE in the Biozzi mouse model (90% dilution, 1000 mg/kg/day, up to 43 days PI).

[3] = Nervonic acid composition of total polar lipid from rat brain (Example 9); assay type: in vivo; details: after Example 6 treatments; NA:GLA at both low and high doses
Protocol: (§3) Upon termination of certain biological evaluations, rat or mice brains were extracted and the fatty acid composition of total polar lipids from rat/mouse brain was determined.
(§4) Biological material was sent for analysis to Dr J. Hendersen at the University of Stirling, Institute of Aquaculture, Scotland. Analyses were carried out on two batches of experiments (detailed respectively in Example 6 and Example 7).

[4] = Nervonic acid composition of total polar lipid from mouse brain (Example 9); assay type: in vivo; details: CREAE-inoculated mice
Protocol: as §3, §4

[5] = Miscibility / physical state of oral compositions in vehicle; assay type: physicochemical; details: room temperature (about 20° C.)
Excerpt: Formulations of the present invention suitable for oral administration may be in the form of discrete units such as capsules, cachets, tablets or lozenges, each containing a predetermined amount of the active ingredient; in the form of a powder or granules; in the form of a solution or a suspension in an aqueous liquid or non-aqueous liquid; or in the form of an oil-in-water emulsion or a water-in-oil emulsion. The active ingredient may also be in the form of a bolus, electuary or paste. For such formulations, a range of dilutions of the active ingredient in the vehicle is suitable, such as from 1% to 99%, preferably 5% to 50% and more preferably 10% to 25% dilution. Depending upon the level of dilution, the formulation will be either a liquid at room temperature (in the region of about 20° C.) or a low-melting solid.

[6] = tested on: neurological EAE in the Lewis rat; details: for Number diseased/total: 5 days prior to inoculation and 25 days PI
Protocol: Male Lewis rats, weighing 230-280 g on the day of inoculation, were injected in each rear footpad with 0.1 ml of an emulsion containing equal parts of guinea pig spinal cord; phosphate buffered saline (PBS) and incomplete Freund's adjuvant supplemented with 10 mg/ml Mycobacterium tuberculosis H37Ra.
Animals were weighed daily and assessed for neurological disease from day 7 post-inoculation (PI). Rats displaying symptoms of EAE were scored as follows: 1: flaccid tail (FT), 2: hind limb hypotonia (HLH), 3: partial hind limb paralysis (PHLP), 4: complete hind limb paralysis (CHLP), 5: moribund or dead.
NA:GLA (neat oil) was orally administered 5 days prior to inoculation and continued for 25 days PI, at a dose of 750 mg/kg body weight/day and 1000 mg/kg body weight/day. NA:DHA (neat oil) was given by an identical dosing regime at a dose of 500 mg/kg body weight/day. Control-sensitised animals received PBS vehicle or were undosed. Undosed, vehicle and low dose NA:GLA treatments contained 7 animals. Four rats received high dose NA:GLA and 3 rats were dosed with NA:DHA.

[7] = rats and mice, up to 10 g/kg; reported in WO 96/34846; cited from earlier work
[8] = Biozzi mouse, 10% w/w in ethyl oleate, 1000 mg/kg body weight/day
[9] = acute phase, Biozzi mouse, 10% w/w in ethyl oleate, 1000 mg/kg body weight/day
[10] = relapse phase, Biozzi mouse, 10% w/w in ethyl oleate, 1000 mg/kg body weight/day
[11] = acute phase, Miglyol 810 vehicle, 1000 mg/kg/day
[12] = acute phase, Miglyol 810 vehicle, n=12, NA:GLA n=11
[13] = relapse phase, Miglyol 810 vehicle, 1000 mg/kg/day
[14] = relapse phase, Miglyol 810 vehicle, NA:GLA n=9, NA:NA n=11

Structure (SMILES): CCCCC/C=C\C/C=C\C/C=C\CCCCC(=O)OCCCOC(=O)CCCCCCCCCCCCC/C=C\CCCCCCCC [NA:GLA, 1-(z-15-tetracosenoyloxy)-3-(z,z,z-6,9,12-octadecatrienoyloxy)propane]
- Acute and relapse symptoms (mean neurological scores) [1, 8]: markedly reduced
- onset of relapse [1, 8]: delayed, but not significantly
- Mean day of symptom loss [1, 9]: 30.0 ± 1.4 days
- Mean day of symptom onset [1, 9]: 21.7 ± 4.2 days
- Mean duration of symptoms [1, 9]: 5.7 ± 1.5 days
- Number of dead mice [1, 9]: 0/10
- No. of diseased mice ([1]; acute phase, Biozzi mouse, […], oral 1000 mg/kg body weight/day, 5 days prior to inoculation and 43 days PI, n=10): 3/10
- AG: Percentage of mice in the group ([1]; acute phase, n=10): 20%
- CFT: Percentage of mice in the group ([1]; acute phase, n=10): 20%
- CHLP: Percentage of mice in the group ([1]; acute phase, n=10): 20%
- HLH: Percentage of mice in the group ([1]; acute phase, n=10): 30%
- PFT: Percentage of mice in the group ([1]; acute phase, n=10): 20%
- PHLP: Percentage of mice in the group ([1]; acute phase, n=10): 20%
- Mean day of symptom onset [1, 10]: 42.0 ± 1.0 days
- No. of diseased mice [1, 10]: 3/10
- Number of dead mice [1, 10]: 0/10
- AG: Percentage of mice in the group ([1]; relapse phase, n=10): 10%
- CFT: Percentage of mice in the group ([1]; relapse phase, n=10): 10%
- CHLP: Percentage of mice in the group ([1]; relapse phase, n=10): 0%
- HLH: Percentage of mice in the group ([1]; relapse phase, n=10): 30%
- PFT: Percentage of mice in the group ([1]; relapse phase, n=10): 10%
- PHLP: Percentage of mice in the group ([1]; relapse phase, n=10): 0%
- effect on the neurological course of CREAE ([2]; Biozzi mouse, Miglyol 810 vehicle, 1000 mg/kg/day): clearly reduced the intensity of neurological deficits during both acute and relapsing phases
- No. of diseased mice ([2]; acute phase, Biozzi mouse, Miglyol 810 vehicle (90% dilution), 1000 mg/kg/day, up to 43 days PI): 10/11
- Mean day of symptom loss [2, 11]: 25.9 ± 2.0 days
- Mean day of symptom onset [2, 11]: 17.9 ± 2.6 days
- Mean duration of symptoms [2, 11]: 6.9 ± 3.0 days
- Number of dead mice [2, 11]: 1/11
- AG: Percentage of mice in the group [2, 12]: 73%
- CFT: Percentage of mice in the group [2, 12]: 82%
- CHLP: Percentage of mice in the group [2, 12]: 36%
- D (dead): Percentage of mice in the group [2, 12]: 9%
- HLH: Percentage of mice in the group [2, 12]: 73%
- IRR: Percentage of mice in the group [2, 12]: 82%
- M (moribund): Percentage of mice in the group [2, 12]: 0%
- PFT: Percentage of mice in the group [2, 12]: 91%
- PHLP: Percentage of mice in the group [2, 12]: 46%
- D (dead): Percentage of mice in the group ([2]; mouse, in vivo): 22%
- M (moribund): Percentage of mice in the group ([2]; mouse, in vivo): 11%
- Mean day of symptom loss [2, 13]: 39.8 ± 5.0 days
- Mean day of symptom onset [2, 13]: 33.1 ± 4.9 days
- Mean duration of symptoms [2, 13]: 7.0 ± 4.2 days
- No. of diseased mice [2, 13]: 8/9
- Number of dead mice [2, 13]: 3/9
- AG: Percentage of mice in the group [2, 14]: 56%
- CFT: Percentage of mice in the group [2, 14]: 67%
- CHLP: Percentage of mice in the group [2, 14]: 44%
- HLH: Percentage of mice in the group [2, 14]: 56%
- IRR: Percentage of mice in the group [2, 14]: 67%
- PFT: Percentage of mice in the group [2, 14]: 89%
- PHLP: Percentage of mice in the group [2, 14]: 56%
- NA levels in rat brain lipids compared to normal, undosed and vehicle treated animals [3]: marked increase of NA levels
- NA levels in mouse brain lipids compared to undosed and vehicle [4]: enhancement of the NA levels in brain lipids
- miscibility of compositions with vehicle [5]: miscible in all proportions at room temperature
- CHLP: Number of animals showing symptoms/total ([6]; 750 mg/kg/day): 3/7
- FT: Number of animals showing symptoms/total ([6]; 750 mg/kg/day): 7/7
- HLH: Number of animals showing symptoms/total ([6]; 750 mg/kg/day): 7/7
- PHLP: Number of animals showing symptoms/total ([6]; 750 mg/kg/day): 4/7
- CHLP: Number of animals showing symptoms/total ([6]; 1000 mg/kg/day): 1/4
- FT: Number of animals showing symptoms/total ([6]; 1000 mg/kg/day): 4/4
- HLH: Number of animals showing symptoms/total ([6]; 1000 mg/kg/day): 4/4
- PHLP: Number of animals showing symptoms/total ([6]; 1000 mg/kg/day): 2/4
- effect on onset, incidence and severity of disease ([6]; 750 and 1000 mg/Kg body weight/day, compared to control groups): delayed the onset and clearly reduced the incidence and severity of disease
- animals that experienced CHLP ([6]; high dose): 25%
- animals that experienced PHLP ([6]; high dose): 50%
- mean cumulative clinical scores ([6]; low and high dose (750 and 1000 mg/kg/day)): consistently lower than control values
- animals that experienced CHLP ([6]; low dose): 43%
- animals that experienced PHLP ([6]; low dose): 57%
- Mean day of final symptom loss (±SD) ([6]; neat oil oral 750 mg/kg/day): 19.0 ± 0.8 days
- Mean day of symptom onset (±SD) ([6]; neat oil oral 750 mg/kg/day): 11.3 ± 0.8 days
- Number of dead/total ([6]; neat oil oral 750 mg/kg/day): 0/7
- Number diseased/total ([6]; neat oil oral 750 mg/kg/day): 7/7
- Mean day of final symptom loss (±SD) ([6]; neat oil oral 1000 mg/kg/day): 18.8 ± 1.3 days
- Mean day of symptom onset (±SD) ([6]; neat oil oral 1000 mg/kg/day): 11.3 ± 0.5 days
- Number of dead/total ([6]; neat oil oral 1000 mg/kg/day): 0/4
- Number diseased/total ([6]; neat oil oral 1000 mg/kg/day): 4/4

Structure (SMILES): CCCCC/C=C\C/C=C\C/C=C\CCCCC(=O)OCCCOC(=O)CCCC/C=C\C/C=C\C/C=C\CCCCC [GLA:GLA, 1,3-Di(z,z,z-6,9,12-Octadecatrienoyloxy)propane]
- evidence of diarrhea (absence of toxicity) [7]: without evidence of diarrhea
